In ChEMBL document CHEMBL5543140 (J Med Chem, 2024):
The source made the active and inactive calls. The calls are words filed in the database; no cut-off is given here.

Columns and labels:
[1] = molecular target: 5-hydroxytryptamine receptor 2A (Homo sapiens, UniProt P28223); assay: Displacement of [3H]LSD from human 5-HT2A receptor expressed in HEK293 cell membrane incubated for 90 mins by microbeta liquid scintillation counting method; format: cell membranes
Homo sapiens = species: Homo sapiens; assay: Selectivity ratio, ratio of Ki for human 5-HT2B receptor to human 5-HT2A receptor
[2] = molecular target: T1, 5-hydroxytryptamine receptor 2C (Homo sapiens, UniProt P28335); assay: Agonist activity at human 5-HT2C receptor expressed in HEK293 cells assessed as IP2 production measured after 30 mins incubation by HTRF assay; format: functional, cell-based
T1 sequence (P28335 whole entry): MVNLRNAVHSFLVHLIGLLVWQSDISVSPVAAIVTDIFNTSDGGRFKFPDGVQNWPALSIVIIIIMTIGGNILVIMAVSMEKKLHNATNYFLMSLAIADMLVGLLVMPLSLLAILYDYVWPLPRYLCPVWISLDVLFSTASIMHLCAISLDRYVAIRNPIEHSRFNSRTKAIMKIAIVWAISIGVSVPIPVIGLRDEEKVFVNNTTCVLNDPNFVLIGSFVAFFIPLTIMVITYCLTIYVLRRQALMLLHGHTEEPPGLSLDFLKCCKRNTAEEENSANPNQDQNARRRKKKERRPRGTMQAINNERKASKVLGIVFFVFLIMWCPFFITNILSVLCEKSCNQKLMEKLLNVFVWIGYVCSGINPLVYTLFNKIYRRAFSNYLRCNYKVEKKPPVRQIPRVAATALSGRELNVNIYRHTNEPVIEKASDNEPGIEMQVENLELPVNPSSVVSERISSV

[3] = molecular target: T2, 5-hydroxytryptamine receptor 1A (Homo sapiens) (UniProt P08908); assay: Agonist activity at human 5-HT1A receptor expressed in HEK293T cells co-transfected with 22F-Glosensor assessed as inhibition of cAMP production measured after 30 mins incubation by Microbeta2Micro-plate counter analysis; format: functional, cell-based; settings: filed as agonist
T2 sequence (whole entry): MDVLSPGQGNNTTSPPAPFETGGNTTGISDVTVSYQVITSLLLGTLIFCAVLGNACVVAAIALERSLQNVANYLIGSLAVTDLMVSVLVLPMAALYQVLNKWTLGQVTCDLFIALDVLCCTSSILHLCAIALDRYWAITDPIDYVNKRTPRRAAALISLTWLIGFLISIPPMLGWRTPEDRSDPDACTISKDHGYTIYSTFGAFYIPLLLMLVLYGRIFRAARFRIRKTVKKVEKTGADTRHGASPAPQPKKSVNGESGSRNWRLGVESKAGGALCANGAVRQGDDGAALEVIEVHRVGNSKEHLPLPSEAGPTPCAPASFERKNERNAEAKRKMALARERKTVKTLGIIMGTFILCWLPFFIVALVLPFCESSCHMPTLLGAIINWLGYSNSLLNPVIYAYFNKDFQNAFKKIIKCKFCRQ

[4] = molecular target: Alpha-2A adrenergic receptor (Homo sapiens, UniProt P08913); assay: Displacement of [3H]-rauwolscine from human recombinant adrenergic alpha-2A receptor expressed in CHO-K1 cells incubated for 60 mins by […] analysis relative to control; format: cell-based
[5] = molecular target: Alpha-2B adrenergic receptor (Homo sapiens, UniProt P18089); assay: biochemical; format: cell-based, CHO-K1
Mus musculus [6] = assay: Locomotor activity in C57BL/6J mouse assessed as distance traveled at 10 mg/kg, po measured for 15 to 25 mins (reference value: 1710 +/- 120 cm) by Ethovision tracking system; format: functional; settings: time 15-25 min
Mus musculus [7] = assay: Locomotor activity in C57BL/6J mouse assessed as distance traveled at 3 mg/kg, sc measured for 15 to 25 mins (reference value: 1710 +/- 120 cm) by Ethovision tracking system; format: functional; settings: time 15-25 min
Mus musculus [8] = assay: Psychedelic effect in C57BL/6J mouse assessed as development of tolerance/ tachyphylaxis at 3 mg/kg, sc measured on day 4 by head-twitch responses test; format: functional, organism-based; settings: time 4.0 day
[9] = Ex vivo binding in C57BL/6J mouse brain frontal cortex assessed as inhibition of [3H]Cimbi-36 binding at 1 mg/kg, sc measured after 5 mins by liquid scintillation counting analysis (reference value: 0%); format: functional
[10] = Ex vivo binding in C57BL/6J mouse brain frontal cortex assessed as inhibition of [3H]Cimbi-36 binding at 1 mg/kg, sc measured after 15 mins by liquid scintillation counting analysis (reference value: 0%); format: functional; settings: 0.25 h
Mus musculus [11] = assay: Induction of neuroplasticity in C57BL/6J mouse assessed as increase in c-Fos mRNA expression in brain frontal cortex at 3 mg/kg, sc single dose by RT-PCR analysis; format: functional, organism-based
Mus musculus [12] = assay: Induction of neuroplasticity in C57BL/6J mouse assessed as increase in EGR2 mRNA expression in brain frontal cortex at 3 mg/kg, sc single dose by RT-PCR analysis; format: functional, organism-based
Hippocampus [13] = assay: Induction of neuroplasticity in C57BL/6J mouse assessed as increase in SYN1 mRNA expression in brain hippocampus at 3 mg/kg, sc single dose by RT-PCR analysis; format: functional, organism-based
Hippocampus [14] = assay: Induction of neuroplasticity in C57BL/6J mouse assessed as increase in BDNF mRNA expression in brain hippocampus at 0.3 mg/kg, sc single dose by RT-PCR analysis; format: functional, organism-based
[15] = Metabolic stability in rat liver microsomes assessed as half life at 1 uM incubated for 120 mins in presence of NADPH; format: ADME, Microsome
[16] = Metabolic stability in dog liver microsomes assessed as half life at 1 uM incubated for 120 mins in presence of NADPH; format: ADME, Canis lupus familiaris, Microsome
[17] = Drug metabolism in rat hepatocytes assessed as formation of sulfoxide metabolites at 10 uM by HRAMS analysis; format: ADME, cell-based, Hepatocyte
[18] = AUClast in Wistar rat plasma at 1 mg/kg, iv measured upto 48 hrs; format: ADME, organism-based
[19] = Volume of distribution in Wistar rat plasma at 1 mg/kg, iv measured upto 48 hrs; format: ADME, organism-based
[20] = MRTlast in Wistar rat plasma at 1 mg/kg, iv measured upto 48 hrs; format: ADME, organism-based
[21] = Half life in Wistar rat brain at 1 mg/kg, iv measured upto 48 hrs; format: ADME, organism-based
[22] = AUClast in Wistar rat brain at 1 mg/kg, iv measured upto 48 hrs; format: ADME, organism-based
[23] = AUCinf in Wistar rat brain at 1 mg/kg, iv measured upto 48 hrs; format: ADME, organism-based
[24] = Brain to plasma ratio in Wistar rat at 1 mg/kg, iv measured upto 48 hrs; format: ADME, organism-based; settings: read-out: BPR
[25] = MRTinf in male Sprague-Dawley rat brain at 1 mg/kg, iv measured upto 8 hrs by LC-MS/MS analysis; format: ADME, organism-based
[26] = CSF to plasma ratio in male Sprague-Dawley rat at 1 mg/kg, iv measured upto 8 hrs by LC-MS/MS analysis; format: ADME, organism-based; settings: CSF and plasma
Brain = assay: Drug binding in male Sprague-Dawley rat brain homogenate at 1 mg/kg, iv measured upto 8 hrs by LC-MS/MS analysis; format: ADME, organism-based; settings: in vivo
[27] = AUCinf in beagle dog at 2 mg/kg, po measured upto 24 hrs; format: ADME, organism-based, Canis lupus familiaris; settings: in vivo

Sequence of 5-hydroxytryptamine receptor 2A (P28223 whole entry): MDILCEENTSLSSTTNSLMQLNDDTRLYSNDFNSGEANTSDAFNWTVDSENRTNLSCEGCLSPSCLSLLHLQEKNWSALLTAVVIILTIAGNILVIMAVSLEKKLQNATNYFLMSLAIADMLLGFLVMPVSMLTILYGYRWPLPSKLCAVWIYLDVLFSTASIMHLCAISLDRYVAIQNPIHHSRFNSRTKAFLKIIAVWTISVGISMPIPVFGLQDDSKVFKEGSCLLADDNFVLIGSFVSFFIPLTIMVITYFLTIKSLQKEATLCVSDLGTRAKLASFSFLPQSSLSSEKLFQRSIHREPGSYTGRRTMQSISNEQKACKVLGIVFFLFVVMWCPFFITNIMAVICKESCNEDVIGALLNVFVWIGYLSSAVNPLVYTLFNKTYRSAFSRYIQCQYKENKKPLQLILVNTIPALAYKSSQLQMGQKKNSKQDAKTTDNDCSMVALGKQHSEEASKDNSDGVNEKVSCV
Sequence of Alpha-2A adrenergic receptor (P08913 whole entry): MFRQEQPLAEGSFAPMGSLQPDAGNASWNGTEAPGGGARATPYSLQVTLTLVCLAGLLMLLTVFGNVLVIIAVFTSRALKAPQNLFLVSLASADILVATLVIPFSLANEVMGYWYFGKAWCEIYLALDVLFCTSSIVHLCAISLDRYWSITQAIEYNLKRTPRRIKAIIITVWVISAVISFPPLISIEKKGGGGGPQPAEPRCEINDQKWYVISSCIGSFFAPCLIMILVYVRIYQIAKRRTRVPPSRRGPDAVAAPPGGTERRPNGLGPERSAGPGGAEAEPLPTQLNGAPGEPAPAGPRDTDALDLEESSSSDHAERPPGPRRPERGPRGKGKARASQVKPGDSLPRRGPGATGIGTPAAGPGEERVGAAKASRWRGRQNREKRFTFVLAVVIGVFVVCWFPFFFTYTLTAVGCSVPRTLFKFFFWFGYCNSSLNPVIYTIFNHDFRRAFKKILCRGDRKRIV
Sequence of Alpha-2B adrenergic receptor (P18089 whole entry): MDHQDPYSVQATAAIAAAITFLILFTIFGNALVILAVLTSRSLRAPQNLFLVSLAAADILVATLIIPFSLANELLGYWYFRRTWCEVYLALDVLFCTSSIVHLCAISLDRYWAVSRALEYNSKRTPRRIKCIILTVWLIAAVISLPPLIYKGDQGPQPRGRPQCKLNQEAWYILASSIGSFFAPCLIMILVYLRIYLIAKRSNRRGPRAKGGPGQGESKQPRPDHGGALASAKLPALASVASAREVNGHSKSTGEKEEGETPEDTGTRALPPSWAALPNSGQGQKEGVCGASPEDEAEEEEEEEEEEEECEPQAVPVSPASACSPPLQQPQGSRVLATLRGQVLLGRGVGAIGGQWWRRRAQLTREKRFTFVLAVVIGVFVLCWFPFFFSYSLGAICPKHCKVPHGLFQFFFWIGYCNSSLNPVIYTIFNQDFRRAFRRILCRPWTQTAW

Compound `COc1cc([Se]C(F)(F)F)c(OC)cc1CCN.Cl` has a Ki ([1]; read-out: Ki) of 3.2 nM, a Ki ([1]; read-out: pKi (converted)) of 3.02 nM and a Ratio Ki (Homo sapiens) of 19. The EC50 [2] was 92 nM, the Emax [3] was 95% and the Ki [4] was 72 nM. It also gave a Ki [5] of 1050 nM, an Activity (Mus musculus [6]) of 1974 cm and an Activity (Mus musculus [7]) of 2446 cm. The Activity (Mus musculus [8]) was “inactive”, the inhibition in vivo at 1 mg/kg [9] was 13% and the inhibition in vivo at 1 mg/kg [10] was 11%. For the same compound, the Activity (Mus musculus [11]) was “Active”, the Activity (Mus musculus [12]) was “Active” and the Activity (Hippocampus [13]) was “inactive”. For the same compound, the Activity (Hippocampus [14]) was “inactive”, the half-life at 1 µM [15] was 55 min and the half-life at 1 µM [16] was > 120 min. The Drug metabolism [17] was “Metabolite_Detected”, the AUC(0-t) at 48 h [18] was 42.2 ng·h/mL and the Vd [19] was 22.2 L/kg. For the same compound, the MRT last at 48 h [20] was 37.2 min, the half-life [21] was 146 min and the AUC(0-t) at 48 h [22] was 2910 ng·h/mL. For the same compound, the AUC(0-inf) [23] was 3260 ng·h/mL, the Kp at 48 h [24] was 64.3 and the MRT inf [25] was 1.98 h. For the same compound, the Kp at 8 h [26] was 0.2, the Activity (Brain) was > 98% and the AUC(0-inf) [27] was 2970 ng·h/mL.
